Measured values taken from PubChem BioAssay (NCI).
Several values for one entry are separate records, joined by “and”; a condition that tells them apart may be missing. Equal entries are not always repeated.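 Dose response: 5 concentrations. Exposure: 48 h. Format: 96-well plates. Endpoint: linear interpolation; highest concentration if not reached. The concentration for 50% growth inhibition is given as GI50. TGI denotes the concentration required for complete inhibition of growth.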

Tests used:
Test in all cases: NCI anticancer screen, dose series, 48 h
[1] = system: 786-0 renal
[2] = system: BT-549 breast
[3] = system: CAKI-1 renal
[4] = system: HL-60(TB) leukemia
[5] = system: HT29 colon
[6] = system: K-562 leukemia
[7] = system: M14 melanoma
[8] = system: NCI-H460 lung
[9] = system: SK-OV-3 ovarian
[10] = system: SN12C renal

| SMILES | GI50 [1] | TGI [1] | GI50 [2] | TGI [2] | GI50 [3] [nM] | TGI [3] [µM] | GI50 [4] | TGI [4] | GI50 [5] | TGI [5] | GI50 [6] | TGI [6] [µM] | GI50 [7] | TGI [7] | GI50 [8] | TGI [8] | GI50 [9] [µM] | TGI [9] [µM] | GI50 [10] | TGI [10] |
| --- | --- | --- | --- | --- | --- | --- | --- | --- | --- | --- | --- | --- | --- | --- | --- | --- | --- | --- | --- | --- |
| O=C1c2ccccc2C(=Cc2ccccc2)c2ccccc21 | 2700 nM | 6.94 µM | 3.71 µM | 15.6 µM | 1540 | 5.49 | 2720 nM | 62.8 µM | 1.17 µM | 4.33 µM | 673 nM | 16 | 2.21 µM | 7.86 µM | 2.98 µM | 15 µM | 2.54 | 9.05 | 2.97 µM | 14.1 µM |
| C/C(=C\C1=C(Cl)C(=O)c2ccccc2C1=O)C(=O)O | 17600 nM | 32.3 µM | 14.2 µM | 27.5 µM | 22100 | 36.6 | 25400 nM | 63.5 µM | 20.1 µM | 36.7 µM | 23100 nM | 54.9 | 17.7 µM | 31.7 µM | 21.9 µM | 45.1 µM | 19 | 33.1 | 24.5 µM | 55.1 µM |
| Cn1cc(C2=C(c3cccnc3)C(=O)NC2=O)c2ccccc21 | > 25000 nM | > 25 µM | > 25 µM | > 25 µM | > 17400 | > 25 | > 25000 nM | > 25 µM | > 25 µM | > 25 µM | > 25000 nM | > 25 | > 25 µM | > 25 µM | > 23.1 µM | > 25 µM | > 22.9 | > 25 | > 25 µM | > 25 µM |
| Cc1cc(C2=NNC(=O)Cc3cc4c(cc32)OCCO4)cc(C)c1N | 5270 nM | > 100 µM | 3.36 µM | > 100 µM | 901 | 7.66 | 1590 nM | 54.5 µM | 0.746 µM | > 100 µM |  |  | 2.17 µM | > 100 µM | 2.64 µM | > 100 µM | 2.44 | 23.6 | 6.17 µM | > 100 µM |
| O=S(=O)(O)c1ccc(-c2nnc(-c3ccccn3)nc2-c2ccc(S(=O)(=O)O)o2)o1 |  | > 100 µM |  | > 100 µM |  | > 100 |  | > 100 µM |  | > 100 µM |  | > 100 |  | > 100 µM |  | > 100 µM |  | > 100 |  | > 100 µM |
| CC(=O)OCC(=O)O[C@@H]1C[C@]2(C(C)C)O[C@@]1(C)[C@@H]1CC[C@@H](C)[C@H]1[C@@H]2OC(=O)/C=C/c1ccccc1 | 931 nM | 18.9 µM | 0.0987 µM | 7 µM | 24.4 | 0.125 | 15000 nM | 62 µM | 23.6 µM | > 100 µM | 17200 nM | > 100 | 26.3 µM | > 100 µM | 21.4 µM | 60.1 µM | 24.5 | > 97.2 | 1.88 µM | 24.3 µM |
| O=P(NC12CC3CC(CC(C3)C1)C2)(N1CC1)N1CC1 |  | > 100 µM |  | > 100 µM |  | > 100 |  | 98.9 µM |  | > 100 µM |  | > 100 |  | > 100 µM |  | > 100 µM |  | > 100 |  | > 100 µM |
| O=C([O][Hg][CH2]C1COC([CH2][Hg][O]C(=O)c2ccccc2)CO1)c1ccccc1 (stereo not drawn) | 2880 nM and 1470 nM | 8.5 µM and 2.99 µM | 7.71 µM and 1.69 µM | 20.4 µM and 3.27 µM | 3380 | 6.76 | 1680 nM and 1820 nM | 4.54 µM and 21.6 µM | 15.7 µM and 1.7 µM | 30.5 µM and 3.26 µM | 648 nM and 945 nM | 2.87 | 8.68 µM and 2.52 µM | 19.8 µM and 4.89 µM | 17.3 µM and 3.49 µM | 33.4 µM and 21.6 µM | 17.6 | 31.4 | 12.2 µM and 1.54 µM | 24.6 µM and 3.02 µM |
| O=C(CF)N(O)c1ccc(/C=C/c2ccccc2)cc1 | 1980 nM | 7.14 µM | 4.37 µM | > 100 µM | 609 | 2.85 | 605 nM | 13.6 µM | 3.52 µM | > 100 µM | 7920 nM | > 100 | 3.82 µM | > 100 µM | 0.322 µM | > 100 µM | 7.53 | 32.1 | 2.67 µM | > 63.5 µM |
| O=C1C2=Nc3ccccc3C(O)N2c2ccccc21 (stereo not drawn) |  | > 100 µM |  | > 100 µM |  | > 100 |  | 34.2 µM |  | > 100 µM |  | > 100 |  | > 100 µM |  | > 100 µM |  | > 100 |  | > 100 µM |
| CCOC(=O)C1=C(C)NC2SC(=O)/C(=C\c3ccccc3O)N2C1c1ccccc1 (stereo not drawn) | 28600 nM | > 100 µM | 23.3 µM | 59.8 µM | 36800 | > 100 | 19600 nM | 54.4 µM | 19.5 µM | 41.4 µM | 26600 nM | > 100 | 24 µM | 65.5 µM | 24.3 µM | 79.4 µM | 52.8 | > 100 | 16.6 µM | 30.5 µM |
| O=C(Nc1ccc(Cl)cc1F)c1cc(I)ccc1O | 2980 nM | 9.24 µM | 0.735 µM | 2.64 µM | 1280 | 5.73 | 1660 nM | 6.87 µM | 3.57 µM | > 100 µM | 1090 nM | > 100 | 0.711 µM | 5.57 µM | 1.5 µM | 14.2 µM | 0.132 | 1.24 | 1.01 µM | 7.62 µM |
| C=CC[P+](c1ccccc1)(c1ccccc1)c1ccccc1 | 27600 nM | > 100 µM | 4.05 µM | 94.5 µM | 52200 | > 100 | 1580 nM | 6.03 µM | 3.21 µM | > 100 µM | 2120 nM | > 100 | 8.09 µM | > 100 µM | 4.54 µM | > 100 µM | 19.2 | > 100 | 6.36 µM | > 100 µM |
| C=CC(C)(O)/C=C/C=C(\C)C(CC1OC1(C)C)OC(=O)/C(C)=C\C (stereo not drawn) |  | > 100 µM |  | > 100 µM |  | > 100 |  | > 100 µM |  | > 100 µM |  | > 100 |  | > 100 µM |  | > 100 µM |  | > 100 |  | > 100 µM |
